pIC50: −log10 of the molar value.
Columns and labels:
[1] = test system: MOLT-4 (human acute lymphoblastic leukemia cells); assay: MTT cancer cell growth inhibition; assay type: cell-based; conditions: 72 h
In short: (§1)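 Cells in DMEM or 1640 + 10% FBS, 1500 cells/well, overnight then treated 72 h at 37 °C, 5% CO2 with compound 10^−5–10^−10 M final (0.1% DMSO control). MTT added 4 h, formazan dissolved in DMSO, read at 570 nm; survival rate calculated.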

[2] = test system: DU145 (human prostate cancer cells); assay: MTT cancer cell growth inhibition; assay type: cell-based; conditions: DU-145, 72 h
In short: as §1

[3] = test system: human colon cancer HCT-116; assay: Subcutaneously transplanted tumors in nude mice; assay type: in vivo, BALB/cA nude mice; design: key to RTV (mean ± SD): RTV = Vt/V0, tumor volume at time t over volume at d0; conditions: for 1-T/C tumor inhibition rate: after three weeks; for RTV (mean ± SD) / TV (mean ± SD) d21: d21
Method: The solvents are isopropanol and anhydrous ethanol (mixed in the volume ratio of 1:1). The test sample is dissolved with solvents and physiological saline in the ratio of 1:1 for use, and the above solvents and physiological saline are dissolved in the ratio of 1:1 as a negative control.
The number of mice in each group: 12 mice in the negative control group, and 6 mice in the administration group.
The cell strains are inoculated to the right axilla subcutaneous layer of the nude mice, with 5×10^6 per mouse. After formed, the transplanted tumors are passed down two generations in the nude mice and then used.
(§2) Tumor tissues in the vigorous growth period are cut into about 1.5 mm^3, and inoculated to the right axilla subcutaneous layer of the nude mice under aseptic conditions. For the subcutaneously transplanted tumors of the nude mice, the diameter of the transplanted tumors is measured by a vernier caliper. The mice are randomly grouped after the tumors grow to 100-200 mm^3. […] The diameter of the transplanted tumors is measured twice per week in the whole experimental process, and meanwhile the weight of the mice is weighed. The calculation formula of tumor volume (TV) is TV=½×a×b^2, where a and b represent length and width, respectively.
(§3) The relative tumor volume (RTV) is calculated according to the measured results, with the following calculation formula: RTV=Vt/V0, where V0 is the tumor volume obtained by measurement during administration in different cages (i.e., d0), Vt is the tumor volume obtained by measurement at each time. […] (Wc−WT)Wc×100%, where Wc is the tumor weight of the control group, and WT is the tumor weight of the treatment group.

HDAC1 = HDAC1 (Homo sapiens, UniProt Q13547); assay: Measurement of biochemical activities of HDAC (fluorescently-labeled acetylated lysine substrate); conditions: read-out: IC50 HDAC1
In short: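 For both HDAC isoforms, fluorescent acetyl-lysine substrate ([…] in reaction) incubated with enzyme and compounds for 30 min at 37; developer then added for 15 min at room temperature. Fluorescence read at excitation 360 nm, emission 460 nm.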

[4] = test system: Human Lung Caner Cell NCI-H1975; assay: Subcutaneously transplanted tumors in nude mice; assay type: in vivo; conditions: 20 mg/kg
Method: as §2, §3

[5] = test system: Human Lymphoma Cell Ramos; assay: Subcutaneously transplanted tumors in nude mice; assay type: in vivo; conditions: 20 mg/kg
Method: as §2, §3

[6] = test system: Human Gastric Adenocarcinoma Cell BGC-823; assay: Subcutaneously transplanted tumors in nude mice; assay type: in vivo; conditions: 20 mg/kg
Method: as §2, §3

Human Melanoma Cell A875 = assay: Subcutaneously transplanted tumors in nude mice; assay type: in vivo; conditions: 20 mg/kg
Method: as §2, §3

[7] = test system: Human Blood Acute Monocytic Leukemia U937; assay: Subcutaneously transplanted tumors in nude mice; assay type: in vivo; conditions: 20 mg/kg
Method: as §2, §3

[8] = Table 2.1, 20 mg/kg q3d × 3w iv

Chain of HDAC1 (Q13547 whole entry, species assumed, canonical isoform): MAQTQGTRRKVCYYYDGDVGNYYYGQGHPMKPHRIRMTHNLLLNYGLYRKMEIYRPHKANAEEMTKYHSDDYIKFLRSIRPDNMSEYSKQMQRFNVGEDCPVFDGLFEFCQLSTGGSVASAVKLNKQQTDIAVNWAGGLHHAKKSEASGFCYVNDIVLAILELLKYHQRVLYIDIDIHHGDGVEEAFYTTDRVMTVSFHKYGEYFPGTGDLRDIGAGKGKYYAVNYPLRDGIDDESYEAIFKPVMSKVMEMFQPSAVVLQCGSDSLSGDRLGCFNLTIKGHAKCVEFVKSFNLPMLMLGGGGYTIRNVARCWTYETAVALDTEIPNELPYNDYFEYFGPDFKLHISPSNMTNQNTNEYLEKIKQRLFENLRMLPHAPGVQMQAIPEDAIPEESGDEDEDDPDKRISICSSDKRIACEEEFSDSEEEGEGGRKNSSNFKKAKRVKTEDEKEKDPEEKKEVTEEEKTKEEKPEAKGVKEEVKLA

Structure (SMILES): C/C=C1\NC(=O)c2csc(n2)CNC(=O)C[C@@H](/C=C/CCSC(=O)CCCCCCC)OC(=O)[C@H](C)NC1=O [Compound 1-4]
- GI50 [1]: 100 nM
- GI50 [2]: 360 nM
- 1-T/C tumor inhibition rate [3, 8]: 74.46%
- TV (mean ± SD) d0 [3, 8]: 116 ± 23 mm^3
- Weight d0 [3, 8]: 16.6 g
- RTV (mean ± SD) [3, 8]: 2.65 ± 1.70
- TV (mean ± SD) d21 [3, 8]: 308 ± 198 mm^3
- Tumor Volume TV (mean ± SD) d 0 ([3]; Table 2.2, 20 mg/kg): 118 ± 23 mm^3
- Tumor Volume TV (mean ± SD) d 3 ([3]; Table 2.2, 20 mg/kg): 126 ± 12 mm^3
- Tumor Volume TV (mean ± SD) d 7 ([3]; Table 2.2, 20 mg/kg): 157 ± 26 mm^3
- Tumor Volume TV (mean ± SD) d 10 ([3]; Table 2.2, 20 mg/kg): 189 ± 52 mm^3
- Tumor Volume TV (mean ± SD) d 14 ([3]; Table 2.2, 20 mg/kg): 234 ± 103 mm^3
- Tumor Volume TV (mean ± SD) d 17 ([3]; Table 2.2, 20 mg/kg): 262 ± 132 mm^3
- Weight (mean ± SD) d 0 ([3]; Table 2.3, 20 mg/kg): 16.6 ± 1.2 g
- Weight (mean ± SD) d 3 ([3]; Table 2.3, 20 mg/kg): 16.2 ± 1.4 g
- Weight (mean ± SD) d 7 ([3]; Table 2.3, 20 mg/kg): 14.8 ± 1.2 g
- Weight (mean ± SD) d 10 ([3]; Table 2.3, 20 mg/kg): 14.5 ± 1.0 g
- Weight (mean ± SD) d 14 ([3]; Table 2.3, 20 mg/kg): 13.8 ± 0.9 g
- Weight (mean ± SD) d 17 ([3]; Table 2.3, 20 mg/kg): 13.3 ± 0.9 g
- Weight (mean ± SD) d 21 ([3]; Table 2.3, 20 mg/kg): 13.0 ± 1.0 g
- pIC50 (HDAC1): > 6.00

Structure (SMILES): C/C=C1\NC(=O)c2csc(n2)CNC(=O)C[C@@H](/C=C/CCSC(=O)CCCCCCC)OC(=O)[C@H](C(C)(C)C)NC1=O [Compound 1-6]
- GI50 [1]: 1000 nM
- GI50 [2]: 50 nM
- 1-T/C tumor inhibition rate [3, 8]: 74.09%
- TV (mean ± SD) d0 [3, 8]: 121 ± 28 mm^3
- Weight d0 [3, 8]: 16.9 g
- RTV (mean ± SD) [3, 8]: 2.69 ± 1.82
- TV (mean ± SD) d21 [3, 8]: 326 ± 221 mm^3
- Tumor Volume TV (mean ± SD) d 0 ([3]; Table 2.2, 20 mg/kg): 120 ± 28 mm^3
- Tumor Volume TV (mean ± SD) d 3 ([3]; Table 2.2, 20 mg/kg): 129 ± 15 mm^3
- Tumor Volume TV (mean ± SD) d 7 ([3]; Table 2.2, 20 mg/kg): 156 ± 23 mm^3
- Tumor Volume TV (mean ± SD) d 10 ([3]; Table 2.2, 20 mg/kg): 195 ± 58 mm^3
- Tumor Volume TV (mean ± SD) d 14 ([3]; Table 2.2, 20 mg/kg): 249 ± 110 mm^3
- Tumor Volume TV (mean ± SD) d 17 ([3]; Table 2.2, 20 mg/kg): 265 ± 122 mm^3
- Weight (mean ± SD) d 0 ([3]; Table 2.3, 20 mg/kg): 16.9 ± 1.0 g
- Weight (mean ± SD) d 3 ([3]; Table 2.3, 20 mg/kg): 16.6 ± 1.8 g
- Weight (mean ± SD) d 7 ([3]; Table 2.3, 20 mg/kg): 15.9 ± 1.6 g
- Weight (mean ± SD) d 10 ([3]; Table 2.3, 20 mg/kg): 15.5 ± 1.6 g
- Weight (mean ± SD) d 14 ([3]; Table 2.3, 20 mg/kg): 14.8 ± 1.8 g
- Weight (mean ± SD) d 17 ([3]; Table 2.3, 20 mg/kg): 14.2 ± 1.7 g
- Weight (mean ± SD) d 21 ([3]; Table 2.3, 20 mg/kg): 13.1 ± 1.6 g
- Tumor Inhibition Rate (1 − T/C) × 100% [4]: 59.19%
- Tumor Inhibition Rate (1 − T/C) × 100% [5]: 60.94%
- Tumor Inhibition Rate (1 − T/C) × 100% [6]: 60.26%
- Tumor Inhibition Rate (1 − T/C) × 100% (Human Melanoma Cell A875): 66.64%
- Tumor Inhibition Rate (1 − T/C) × 100% [7]: 66.37%
- pIC50 (HDAC1): > 5.00

Structure (SMILES): C/C=C1\NC(=O)c2csc(n2)CNC(=O)C[C@@H](/C=C/CCSC(=O)CCCCCCC)OC(=O)[C@H](Cc2ccccc2)NC1=O [Compound 1-7]
- GI50 [1]: 100 nM
- GI50 [2]: 20 nM
- 1-T/C tumor inhibition rate [3, 8]: 72.24%
- TV (mean ± SD) d0 [3, 8]: 115 ± 20 mm^3
- Weight d0 [3, 8]: 16.6 g
- RTV (mean ± SD) [3, 8]: 2.89 ± 1.62
- TV (mean ± SD) d21 [3, 8]: 332 ± 186 mm^3
- Tumor Volume TV (mean ± SD) d 0 ([3]; Table 2.2, 20 mg/kg): 116 ± 21 mm^3
- Tumor Volume TV (mean ± SD) d 3 ([3]; Table 2.2, 20 mg/kg): 131 ± 11 mm^3
- Tumor Volume TV (mean ± SD) d 7 ([3]; Table 2.2, 20 mg/kg): 158 ± 26 mm^3
- Tumor Volume TV (mean ± SD) d 10 ([3]; Table 2.2, 20 mg/kg): 199 ± 68 mm^3
- Tumor Volume TV (mean ± SD) d 14 ([3]; Table 2.2, 20 mg/kg): 245 ± 107 mm^3
- Tumor Volume TV (mean ± SD) d 17 ([3]; Table 2.2, 20 mg/kg): 275 ± 132 mm^3
- Weight (mean ± SD) d 0 ([3]; Table 2.3, 20 mg/kg): 16.6 ± 1.1 g
- Weight (mean ± SD) d 3 ([3]; Table 2.3, 20 mg/kg): 15.9 ± 0.7 g
- Weight (mean ± SD) d 7 ([3]; Table 2.3, 20 mg/kg): 15.1 ± 0.9 g
- Weight (mean ± SD) d 10 ([3]; Table 2.3, 20 mg/kg): 14.5 ± 1.2 g
- Weight (mean ± SD) d 14 ([3]; Table 2.3, 20 mg/kg): 14.0 ± 1.0 g
- Weight (mean ± SD) d 17 ([3]; Table 2.3, 20 mg/kg): 13.5 ± 1.0 g
- Weight (mean ± SD) d 21 ([3]; Table 2.3, 20 mg/kg): 13.2 ± 1.0 g
- pIC50 (HDAC1): > 5.00

Structure (SMILES): O=C(CCCCCCC(=O)Nc1ccccc1)NO [SAHA, suberoylanilide hydroxamic acid, reference compound]
- TV (mean ± SD) d0 ([3]; Table 1.1, 50 mg/kg qd × 3w iv): 116 ± 27 mm^3
- Weight d0 ([3]; Table 1.1, 50 mg/kg qd × 3w iv): 16.6 g
- RTV (mean ± SD) ([3]; Table 1.1, 50 mg/kg qd × 3w iv): 4.87 ± 1.68
- TV (mean ± SD) d21 ([3]; Table 1.1, 50 mg/kg qd × 3w iv): 566 ± 221 mm^3
- Tumor Volume TV (mean ± SD) d 0 ([3]; Table 1.2, 50 mg/kg): 116 ± 27 mm^3
- Tumor Volume TV (mean ± SD) d 3 ([3]; Table 1.2, 50 mg/kg): 146 ± 38 mm^3
- Tumor Volume TV (mean ± SD) d 7 ([3]; Table 1.2, 50 mg/kg): 191 ± 25 mm^3
- Tumor Volume TV (mean ± SD) d 10 ([3]; Table 1.2, 50 mg/kg): 283 ± 41 mm^3
- Tumor Volume TV (mean ± SD) d 14 ([3]; Table 1.2, 50 mg/kg): 326 ± 45 mm^3
- Tumor Volume TV (mean ± SD) d 17 ([3]; Table 1.2, 50 mg/kg): 417 ± 140 mm^3
- Weight (mean ± SD) d 0 ([3]; Table 1.3, 50 mg/kg): 16.6 ± 1.5 g
- Weight (mean ± SD) d 3 ([3]; Table 1.3, 50 mg/kg): 15.9 ± 1.5 g
- Weight (mean ± SD) d 7 ([3]; Table 1.3, 50 mg/kg): 14.9 ± 1.8 g
- Weight (mean ± SD) d 10 ([3]; Table 1.3, 50 mg/kg): 14.6 ± 1.4 g
- Weight (mean ± SD) d 14 ([3]; Table 1.3, 50 mg/kg): 14.1 ± 1.3 g
- Weight (mean ± SD) d 17 ([3]; Table 1.3, 50 mg/kg): 13.6 ± 1.3 g
- Weight (mean ± SD) d 21 ([3]; Table 1.3, 50 mg/kg): 13.3 ± 1.1 g
- TV (mean ± SD) d0 ([3]; Table 2.1, 50 mg/kg qd × 3w iv): 118 ± 25 mm^3
- Weight d0 ([3]; Table 2.1, 50 mg/kg qd × 3w iv): 16.9 g
- RTV (mean ± SD) ([3]; Table 2.1, 50 mg/kg qd × 3w iv): 4.54 ± 1.72
- TV (mean ± SD) d21 ([3]; Table 2.1, 50 mg/kg qd × 3w iv): 536 ± 203 mm^3
- Tumor Volume TV (mean ± SD) d 0 ([3]; Table 2.2, 50 mg/kg): 120 ± 25 mm^3
- Tumor Volume TV (mean ± SD) d 3 ([3]; Table 2.2, 50 mg/kg): 146 ± 36 mm^3
- Tumor Volume TV (mean ± SD) d 7 ([3]; Table 2.2, 50 mg/kg): 189 ± 20 mm^3
- Tumor Volume TV (mean ± SD) d 10 ([3]; Table 2.2, 50 mg/kg): 263 ± 33 mm^3
- Tumor Volume TV (mean ± SD) d 14 ([3]; Table 2.2, 50 mg/kg): 300 ± 35 mm^3
- Tumor Volume TV (mean ± SD) d 17 ([3]; Table 2.2, 50 mg/kg): 402 ± 146 mm^3
- Weight (mean ± SD) d 0 ([3]; Table 2.3, 50 mg/kg): 16.8 ± 1.0 g
- Weight (mean ± SD) d 3 ([3]; Table 2.3, 50 mg/kg): 15.7 ± 1.2 g
- Weight (mean ± SD) d 7 ([3]; Table 2.3, 50 mg/kg): 14.9 ± 1.6 g
- Weight (mean ± SD) d 10 ([3]; Table 2.3, 50 mg/kg): 14.6 ± 1.5 g
- Weight (mean ± SD) d 14 ([3]; Table 2.3, 50 mg/kg): 14.2 ± 1.4 g
- Weight (mean ± SD) d 17 ([3]; Table 2.3, 50 mg/kg): 13.8 ± 1.3 g
- Weight (mean ± SD) d 21 ([3]; Table 2.3, 50 mg/kg): 13.4 ± 1.1 g

From US8933195B2, “Histone deacetylase inhibitors and synthetic method thereof and use thereof in manufacture of medicaments” (Nanjing Yoko Biomedical R & D Ltd., priority 2011, dated 2015)
